Experimental findings from a melting point compilation (Tetko et al.; mined from patent text by program, amines drawn as free bases though some values may be those of a salt) are described below.

In the case of `CC(C)(C)C(=O)OCC1OC(OC(=O)C(C)(C)C)C(OC(=O)C(C)(C)C)C(OC(=O)C(C)(C)C)C1OC(=O)C(C)(C)C` (centres undefined), the melting point was in the range of 153 to 156 °C.
The figure for `C=CCn1c(=O)c2[nH]c(C34CC5CC(CC3C5)C4)nc2n(CCC)c1=O` is 191 to 192 °C; for `CCn1nc(C)c2c(Cl)cc(-c3ccccc3)nc21` it is 101 to 103 °C; for `OCC(O)Cc1c(Cl)cc2c(c1OCc1ccccc1)CCC2` (centres undefined) it is 101 to 104 °C.
Molecule `CCCCCC(=O)NN` showed a melting point of 72.5 to 73.9 °C.
Under `CN1CCC(N(CCCC2CCCO2)S(=O)(=O)c2ccc(Nc3nccc(Nc4ccc(F)cc4)n3)cc2)CC1` (centres undefined) stands 189 °C; under `Cn1c2ccccc2c2cc(CO)ccc21`, 96 °C.
`CC(C)(C)OC(=O)NCC(=O)N1CCC[C@H]1C(=O)OC[C@H](Cc1ccccc1)Nc1ccc(O)c2c1C(=O)c1c(O)cccc1C2=O` yielded a melting point of 100 °C.
Consider `C=CCON(CCCCCCCCCCCCCCCCCC)CCCCCCCCCCCCCCCCCC`, for which the melting point was in the range of 60 to 62 °C.
As for `CCCCCCCCCCCCCCOCC(CCC(=O)N(C)C)(CCC(=O)N(C)C)COCCCCCCCCCCCCCC`, the melting point fell in the range of 47 to 49 °C.
For the molecule `CCCc1c(OCCCOc2ccc(C(C)=O)c(OCCCC(=O)OCC)c2CCC)ccc(C(C)=O)c1O`, the melting point lay within 77 to 79 °C.
`COc1cc(Nc2c(C#N)cnc3cc(-c4ccc(CNCCS(=O)(=O)c5ccccc5)cc4)ccc23)c(Cl)cc1Cl` registered a melting point of 198 to 201 °C.
Under `Cc1csn(-c2ccc(Cl)c(Cl)c2)c1=O` stands 160 to 161 °C; under `O=c1[nH]c2ccc(CCCNCC[C@H]3CC[C@H](c4ccc(F)cc4)CC3)cc2o1`, 99 to 109 °C.
As for `CC1(C)CC(S(=O)(=O)Cc2cnccc2C(F)(F)F)=NO1`, the melting point fell in the range of 77 to 80 °C.
Consider `CN(C)CCc1cn(Cc2ccccc2)c2ccc(C(C#N)S(=O)(=O)N(C)C(c3ccccc3)c3ccccc3)cc12` (centres undefined), for which the melting point lay within 98 to 100 °C.
The figure for `CC(c1oc2ccc(F)cc2c(=O)c1-c1ccccc1)n1cnc2c(N)ncnc21` (centres undefined) is 264 to 269 °C; for `CCCCCCC(=N)NC(=S)Nc1ccc(OC(F)(F)F)cc1` it is 90 to 91 °C.
As to `O=C1c2ccccc2CN1CCCOc1ccncc1`, the melting point fell in the range of 70 to 71 °C.
The figure for `CCCc1nc(C=NNC(=S)SC)c(C)[nH]1` is 175 to 179 °C; for `Nc1nc(Cl)c2ncn(C3CC(F)C(CO)O3)c2n1` (centres undefined) it is 172 °C; for `CCCC[N+]([O-])=Cc1ccc(OCc2ccccc2)c(OC)c1` it is 81.2 °C.
In turn, `COC(=O)CCC1(CCC(=O)OC)c2cc(I)ccc2-c2ccc(I)cc21` gave a melting point of 106 to 108 °C.
Under `O=C1c2ccccc2C(=O)N1CC=CCn1ccnc1` stands 106 to 108 °C.
Under `Oc1ncnc2[nH]c(-c3ccc4ccccc4c3)cc12` stands more than 300 °C; under `CCC(C)(CCCCCCC(C)(CC)C(=O)O)C(=O)O` (centres undefined), 117 to 118 °C.
The figure for `COC(=O)C1(C(=O)OC)CN(C(=O)OC(C)(C)C)c2cc([N+](=O)[O-])ccc21` is 132 °C; for `CC(C)Cn1c(-c2c(F)cccc2F)c(Br)nc(Br)c1=O` it is 125 to 126 °C; for `CC12C=CCC1C1CCC3=CC(=O)CCC3C1CC2` (centres undefined) it is 67 to 71 °C.
The molecule `CC(C(=O)NO)c1ccc(C(=O)c2cccs2)cc1` (centres undefined) displayed a melting point of 144 °C.
The figure for `O=C(Nc1cccc(F)c1)NC1CCN(S(=O)(=O)c2ccc(Cl)cc2)CC1` is 245 to 248 °C.
Turning to `COc1cc(OC)nc(-n2c(C(F)(F)F)nc3cc(C)ccc32)n1`, the melting point fell in the range of 93 to 96 °C.
The molecule `COc1ccc(N2C(=O)N(c3cccc(C#N)c3)c3nc(Nc4ccccc4)ncc3C2C)c(F)c1` (centres undefined) showed a melting point of 223 to 228 °C.
The molecule `CC(C)(C)c1ccc(C(N)=CC#N)cc1` returned a melting point of 74 to 75 °C.
Under `CC(=O)NC1(CNS(=O)(=O)c2ccccc2)CCN(C(=O)OC(C)(C)C)CC1` stands 226 to 227 °C.
The molecule `CCOc1ccc2[nH]cc(C(=O)NCc3ccccc3)c(=O)c2n1` registered a melting point of 199 °C.
For the molecule `Cc1cc(OCCC[Si](C)(C)C)c(Cl)cc1[N+](=O)[O-]`, the melting point lay in the range of 66 to 68 °C.
`COCCN1C(C)=C(C(=O)OC)C(CCOC)(c2ccccc2Cl)C(C(=O)OC)=C1C`: the melting point lay in the range of 120 to 121 °C.
In turn, `CC(=O)OCC1OC(n2cc(C(N)=S)nn2)C(OC(C)=O)C1OC(C)=O` (centres undefined) returned a melting point of 110 to 112 °C.
Molecule `COc1ccc(N)c(C(=O)CS(=O)(=O)N(C)C)c1` yielded a melting point of 198 to 200 °C.
In the case of `CN(CCc1ccc([N+](=O)[O-])cc1)Cc1ccc2cc([N+](=O)[O-])ccc2n1`, the melting point was in the range of 104 to 105 °C.
`CCCCCCCCCCC(C)OS(=O)(=O)NC(=O)Nc1c(C(C)C)cccc1C(C)C` (centres undefined) yielded a melting point of 110 to 112 °C.
Molecule `C#CCCOC(c1ccccc1)(c1ccccc1)c1ccccc1` registered a melting point of 97 to 99 °C.
As for `O=S1c2ccccc2Nc2nccnc21` (centres undefined), the melting point lay in the range of 261 to 263 °C.
Under `COc1nc(C)nc(NC(=O)NS(=O)(=O)c2ccccc2C(=O)OCCCl)n1` stands 167 to 170 °C.
As to `CCCOc1ccc(-c2csc(-c3ccccc3)c2CC(=O)N=C(N)N)cc1`, the melting point was 131 to 132 °C.
The figure for `Cc1cc(=O)oc2cc(NC(=O)CO)ccc12` is 253 to 254 °C; for `COc1ccc(C(=O)N2CCOc3ccc(C4=NNC(=O)CC4)cc32)cc1OC` it is 207 to 208 °C.
Under `CC1(C)CC(O)(C(F)(F)F)C(Nc2cccc3[nH]ncc23)c2ccc(Cl)c(O)c21` (centres undefined) stands 112 to 120 °C; under `CCOCc1nc2c(N)nc3cc(N4CCCC4=O)cnc3c2n1CC(C)C`, 198 °C.
Under `ClCn1cc(Cl)c(-c2cc(Cl)cc(Cl)c2)n1` stands 88 °C; under `Cn1cc(-c2cccc(N3Cc4cc(C5CC5)sc4C3=O)c2CO)cc(Nc2ccncn2)c1=O`, 140 to 141 °C.
`CCCC(CCC)n1ccc(=O)c2c(Cl)cc(C)nc21` registered a melting point of 82 to 85 °C.
For `COC(=O)C(=O)c1cc(OC)c(OCCOc2ccc3ccccc3c2)c(OC)c1`, the melting point fell in the range of 69 to 71 °C.
The molecule `CCOC(=O)c1cn(CC)c2nc(N3CCN(Cc4ccccc4)CC3)ncc2c1=O` registered a melting point of 152 °C.
The figure for `COc1cc2ncnc(N3CCN(C(=S)Nc4ccc(S(=O)(=O)N5CCCCC5)cc4)CC3)c2cc1OC` is 149 to 150 °C; for `O=C(O)COc1ccc2cc(-c3cnc(-c4cn(Cc5ccccc5)c5ccccc45)o3)ccc2c1` it is 238 to 242 °C; for `N#Cc1cc(C(=O)NNC(=O)c2occc2-c2ccccc2)ccc1O` it is 216 to 217 °C.
Turning to `Cc1cc(COc2ccc(Cl)cc2CN)on1`, the melting point is 32 to 35 °C.
The figure for `O=[N+]([O-])c1ccc2c(ccn2CCCCl)c1` is 74 to 76 °C; for `Cc1nn(-c2cc3[nH]c(=O)ccc3cc2F)c(=O)n1C(F)F` it is 215 to 217 °C.
The figure for `Cc1ccc(S(=O)(=O)N[C@H](COS(=O)(=O)c2ccc(C)cc2)CC(C)C)cc1` is 99 to 101 °C.
In the case of `CC(C)C(NC(=O)OCc1ccncc1)C(=O)NC(Cc1ccccc1)C(O)C(Cc1ccccc1)NC(=O)C(NC(=O)OCc1ccncc1)C(C)C` (centres undefined), the melting point was in the range of 158 to 159 °C.
Under `O=C1N(Cc2ccc(Cl)cc2)c2ccccc2C1(O)CC(F)(F)c1cccs1` (centres undefined) stands 121 to 123 °C.
The figure for `Cc1ccc(C(c2ccc(C)cc2)(c2ccc(C)cc2)c2ccc(C#N)cc2)cc1` is 207 to 209 °C.
In turn, `CCCOCCCCCCCCCC(=O)O` yielded a melting point of less than 30 °C.
With `N#CC1=C(C2CC2)Nc2n[nH]cc2C1c1ccccc1Cl` (centres undefined), the melting point is more than 250 °C.
`CCOC(=O)C(Cl)=Cc1cc(NC(=O)C2=C(C(=O)N(C)C)CCCC2)ccc1Cl` returned a melting point of 161 to 164 °C.
`CCCCCCNC(=O)n1nc(Oc2ncc(C(F)(F)F)cc2Cl)c(Cl)c1C` came in with a melting point of 57 to 59 °C.
Under `COc1ccc(OC)c(COc2ccc(NC=O)c(C(N)=O)c2)c1` stands 135 to 138 °C; under `C=CCc1c(C)nc2c(OCc3ccccc3)cccn12`, 90.5 to 91.5 °C.
In turn, `COCc1cc(N2CCOCC2)ncn1` registered a melting point of 56 °C.
Consider `COc1cc2c3c(c1O)C1(C=CC(=O)C=C1)CC3N(C)CC2` (centres undefined), for which the melting point was 225 °C.
Regarding `CCOC(=O)C1=C(C)NN=C(CC)C1c1ccccc1` (centres undefined), the melting point was 109 °C.
The figure for `O=C1C[C@@H]2O[C@@H](CSc3ccccc3)CN12` (racemic) is 35.5 to 37 °C; for `Nc1ccccc1-c1ccc(CCCC(=O)O)cc1` it is 123 to 126 °C.
Under `CC(=O)NCC1CC(c2ccc(-n3ccc(C#N)c3)c(F)c2)=NO1` (single isomer, unassigned; (-)) stands 159 to 161 °C.
The figure for `CCOCCc1nc(N)cc(=O)[nH]1` is 167 to 170 °C.
Take `COc1ccc2c(c1)Sc1cc([N+](=O)[O-])ccc1N2C(C)=O`: the melting point was in the range of 156 to 157 °C.
Under `CCC1Nc2cc(F)c(F)c(F)c2-n2cccc21` (centres undefined) stands 69 to 70 °C.
Under `CNc1ccc(OC)c([N+](=O)[O-])c1OC` stands 57 °C.
The figure for `CC(C)(c1cc(Cl)cc([N+](=O)[O-])c1O)c1cc(Cl)cc([N+](=O)[O-])c1O` is 188 °C.
The molecule `CC(C)(C)c1cc(NC(=O)NCCc2ccc([N+](=O)[O-])cc2)cc(C(C)(C)C)c1O` displayed a melting point of 185 to 187 °C.
`CCOC(=O)c1ccc(C=C(C)C=O)cn1` registered a melting point of 72 to 73 °C.
The figure for `CSc1ncc(Br)c(P(=O)(c2ccccc2)c2ccccc2)n1` is 124 to 127 °C; for `Nc1c(C(=O)c2ccncc2)[nH]c2cc(Cl)ccc12` it is 266 to 267 °C; for `O=C1NC(=O)C(c2ccc3ccccc3c2)O1` (centres undefined) it is 187 to 188 °C.
The figure for `COc1ccccc1OCCN1CCC(Cc2c[nH]c3ccc(F)cc23)CC1` is 91 °C; for `O=c1[nH]c2cc(F)c(Cl)c(F)c2[nH]c1=O` it is more than 250 °C.
